Measurements from US11390625B2, “Aryl-phosphorus-oxygen compound as EGFR kinase inhibitor” (Chia Tai Tianqing Pharmaceutical Group Co., Ltd., priority 2017, dated 2022).
pIC50: −log10 of the molar value.

Key:
[1] = system: PC-9 (Δ19del) xenograft; experiment: In vivo pharmacodynamics study (2): PC-9 (Δ19del) subcutaneously transplanted tumor in mouse; details: 50 mg/kg (days 0-9); for Tumor volume Day 0 / Tumor volume Day 2 / Tumor volume Day 6 / Tumor volume Day 9 / Tumor volume Day 13 / Tumor volume Day 16 / Tumor volume Day 20 / Tumor volume Day 23: 25 mg/kg (days 10-21) oral once a day
Experimental: 1. Cell culture: lung cancer PC-9 cells were monolayer cultured in vitro, culture conditions: RPMI-1640 (cell culture medium) plus 10% fetal bovine serum, 100 U/mL penicillin and 100 μg/mL streptomycin, culture in a 5% CO2 incubator at 37° C. The cells were conventionally digested with trypsin-EDTA twice a week for passage. When the cell saturation was 80%-90%, and the number reached the requirements, the cells were collected and counted. The density was 5×10^6 cells.
2. Cell inoculation: 0.2 mL (containing 5×10^6 cells) of PC-9 cell suspension (PBS: Matrigel=1:1) was subcutaneously inoculated into the right back of each mouse, with a total of 64 mice. On Day 7 after inoculation, when the average tumor volume measured reached 169 mm^3, the animals were randomly hierarchically grouped based on tumor volume and animal weight, and started to administrate each group. PBS was a phosphate buffer solution, and Matrigel was a matrix.
3. Administration: dosage: Days 0-9: 50 mg/kg; Days 10-21: 25 mg/kg; oral administration; administration frequency: once a day×3 weeks.
Tumor Measurement and Experimental Indicators
Tumor diameter was measured twice a week with a vernier caliper.
The antitumor effect of the compound was evaluated by TGI (%).
The relative tumor volume (RTV) was calculated according to the results of tumor measurement. The calculation formula was RTV=Vt/V0, wherein V0 was the tumor volume measured during group administration (i.e., DO), and Vt was the tumor volume of the corresponding mice measured at a certain time. The data on the same day were taken for TRTV and CRTV.
TGI (%) reflected tumor growth inhibition rate.
After the end of the experiments, the tumor weight would be measured and the TGI (%) was calculated.

[2] = target: EGFR (C797S/T790M/L858R) (Homo sapiens (Human), UniProt P00533, C797S/L858R/T790M); experiment: Enzyme activity experiment (2): EGFR (C797S/T790M/L858R) enzyme inhibition; type: biochemical
Chain of EGFR (C797S/T790M/L858R) (P00533 25-1210 T790M/C797S/L858R): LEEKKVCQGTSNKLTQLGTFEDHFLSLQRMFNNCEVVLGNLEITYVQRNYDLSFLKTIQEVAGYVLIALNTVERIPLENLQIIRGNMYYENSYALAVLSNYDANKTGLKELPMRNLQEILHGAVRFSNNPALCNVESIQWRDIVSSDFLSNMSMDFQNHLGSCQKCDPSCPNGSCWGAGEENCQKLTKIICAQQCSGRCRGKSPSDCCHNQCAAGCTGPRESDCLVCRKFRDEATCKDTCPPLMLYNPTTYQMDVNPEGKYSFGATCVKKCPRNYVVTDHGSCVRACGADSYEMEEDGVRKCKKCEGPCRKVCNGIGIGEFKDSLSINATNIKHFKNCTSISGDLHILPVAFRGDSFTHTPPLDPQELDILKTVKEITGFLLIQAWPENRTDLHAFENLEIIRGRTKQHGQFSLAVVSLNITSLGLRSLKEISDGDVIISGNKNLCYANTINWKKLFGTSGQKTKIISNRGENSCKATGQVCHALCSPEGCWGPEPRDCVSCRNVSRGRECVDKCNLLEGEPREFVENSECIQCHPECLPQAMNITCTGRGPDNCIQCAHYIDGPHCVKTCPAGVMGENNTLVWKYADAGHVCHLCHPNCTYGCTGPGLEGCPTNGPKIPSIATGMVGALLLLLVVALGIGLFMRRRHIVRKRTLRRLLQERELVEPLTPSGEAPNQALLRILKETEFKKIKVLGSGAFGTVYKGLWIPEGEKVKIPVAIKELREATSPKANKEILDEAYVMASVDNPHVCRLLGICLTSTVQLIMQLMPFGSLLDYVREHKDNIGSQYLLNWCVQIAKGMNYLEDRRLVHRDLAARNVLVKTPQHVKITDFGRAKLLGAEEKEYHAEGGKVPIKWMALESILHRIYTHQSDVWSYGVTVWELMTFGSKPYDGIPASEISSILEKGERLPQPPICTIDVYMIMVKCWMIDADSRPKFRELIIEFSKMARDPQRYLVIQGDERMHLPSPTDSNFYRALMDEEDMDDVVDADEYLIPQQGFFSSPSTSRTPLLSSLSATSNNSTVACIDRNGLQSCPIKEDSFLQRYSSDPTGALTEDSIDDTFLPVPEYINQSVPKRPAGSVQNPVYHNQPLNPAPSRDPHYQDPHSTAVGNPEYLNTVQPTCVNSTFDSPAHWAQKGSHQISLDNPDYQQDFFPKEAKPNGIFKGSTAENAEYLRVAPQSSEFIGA
Experimental: (§1) 1. Gradient Dilution of the Compound:
(§2) The dilution and transfer of the compounds were completed by Echo by Labcyte Inc., with a three-fold concentration gradient, a total of 11 dose points, and 100 nL of the compounds per well. The maximum concentration of the test compounds in the kinase reaction solutions was 1000 nM. The maximum concentration of the reference compound (Crizotinib & AP26113) in the kinase reaction solution was 1000 nM. The maximum concentration of the reference compound (AZD9291) in the kinase reaction solution was 300 nM.
(§3) The plate was centrifuged at a speed of 1000 rpm for 60 seconds. The test plate was incubated at 23° C. for 15 minutes.
(§4) (3) The test plate was film sealed and incubated at 23° C. for 90 minutes.
(§5) (4) The test plate was added with 2× detection solution (4 nM TK antibody and 125 nM XL665), 10 μL per well, and centrifuged at a speed of 1000 rpm for 60 seconds, and film sealed, which was incubated at 23° C. for 60 minutes.
(§6) (5) The plate was read on the Multi-Mark Detector Envision.

[3] = target: EGFR (WT) (Homo sapiens (Human), UniProt P00533); experiment: Enzyme activity experiment (2): EGFR WT enzyme inhibition; type: biochemical
Chain of EGFR (WT) (P00533 25-1210): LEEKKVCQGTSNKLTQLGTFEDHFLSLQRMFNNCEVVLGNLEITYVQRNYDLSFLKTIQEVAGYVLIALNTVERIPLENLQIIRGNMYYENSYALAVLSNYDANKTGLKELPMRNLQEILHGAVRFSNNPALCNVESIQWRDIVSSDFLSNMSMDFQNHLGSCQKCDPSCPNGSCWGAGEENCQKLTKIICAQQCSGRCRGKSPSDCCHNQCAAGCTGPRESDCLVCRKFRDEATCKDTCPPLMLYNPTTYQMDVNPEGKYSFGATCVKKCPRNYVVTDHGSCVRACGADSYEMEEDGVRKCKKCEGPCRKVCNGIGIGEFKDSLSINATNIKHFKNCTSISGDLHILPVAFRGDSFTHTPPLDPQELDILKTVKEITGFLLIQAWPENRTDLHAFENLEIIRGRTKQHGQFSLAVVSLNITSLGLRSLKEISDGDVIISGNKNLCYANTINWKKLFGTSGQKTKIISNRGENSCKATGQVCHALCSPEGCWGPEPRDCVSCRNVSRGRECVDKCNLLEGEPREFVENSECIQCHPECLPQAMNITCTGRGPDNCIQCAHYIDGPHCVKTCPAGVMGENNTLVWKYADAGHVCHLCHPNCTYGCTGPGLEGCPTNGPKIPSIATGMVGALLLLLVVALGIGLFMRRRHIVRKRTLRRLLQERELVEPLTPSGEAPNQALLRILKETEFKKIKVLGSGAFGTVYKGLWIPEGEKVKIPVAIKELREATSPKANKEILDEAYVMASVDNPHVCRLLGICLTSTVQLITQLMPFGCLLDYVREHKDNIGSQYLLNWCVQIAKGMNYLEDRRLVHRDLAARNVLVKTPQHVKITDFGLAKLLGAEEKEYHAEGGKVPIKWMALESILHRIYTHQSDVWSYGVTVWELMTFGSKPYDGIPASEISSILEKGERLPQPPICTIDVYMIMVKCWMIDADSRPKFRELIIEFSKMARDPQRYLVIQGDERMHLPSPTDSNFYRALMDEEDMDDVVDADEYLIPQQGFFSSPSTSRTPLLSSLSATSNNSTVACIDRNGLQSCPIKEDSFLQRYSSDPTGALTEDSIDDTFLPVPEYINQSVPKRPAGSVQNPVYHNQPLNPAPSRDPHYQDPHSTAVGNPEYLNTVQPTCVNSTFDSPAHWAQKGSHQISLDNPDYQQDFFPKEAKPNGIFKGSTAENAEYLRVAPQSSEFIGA
Experimental: as §1, §2, §3, §4, §5, §6

[4] = target: EGFR (Δ19del/T790M/C797S) (Homo sapiens, UniProt P00533, C797S/T790M, form not given); experiment: Enzyme activity experiment (1): EGFR (Δ19del/T790M/C797S) enzyme inhibition; type: biochemical; details: read-out: EGFR (Δ19del/T790M/C797S) IC50
Chain of EGFR (Δ19del/T790M/C797S) (P00533 25-1210 T790M/C797S limits assumed, form open): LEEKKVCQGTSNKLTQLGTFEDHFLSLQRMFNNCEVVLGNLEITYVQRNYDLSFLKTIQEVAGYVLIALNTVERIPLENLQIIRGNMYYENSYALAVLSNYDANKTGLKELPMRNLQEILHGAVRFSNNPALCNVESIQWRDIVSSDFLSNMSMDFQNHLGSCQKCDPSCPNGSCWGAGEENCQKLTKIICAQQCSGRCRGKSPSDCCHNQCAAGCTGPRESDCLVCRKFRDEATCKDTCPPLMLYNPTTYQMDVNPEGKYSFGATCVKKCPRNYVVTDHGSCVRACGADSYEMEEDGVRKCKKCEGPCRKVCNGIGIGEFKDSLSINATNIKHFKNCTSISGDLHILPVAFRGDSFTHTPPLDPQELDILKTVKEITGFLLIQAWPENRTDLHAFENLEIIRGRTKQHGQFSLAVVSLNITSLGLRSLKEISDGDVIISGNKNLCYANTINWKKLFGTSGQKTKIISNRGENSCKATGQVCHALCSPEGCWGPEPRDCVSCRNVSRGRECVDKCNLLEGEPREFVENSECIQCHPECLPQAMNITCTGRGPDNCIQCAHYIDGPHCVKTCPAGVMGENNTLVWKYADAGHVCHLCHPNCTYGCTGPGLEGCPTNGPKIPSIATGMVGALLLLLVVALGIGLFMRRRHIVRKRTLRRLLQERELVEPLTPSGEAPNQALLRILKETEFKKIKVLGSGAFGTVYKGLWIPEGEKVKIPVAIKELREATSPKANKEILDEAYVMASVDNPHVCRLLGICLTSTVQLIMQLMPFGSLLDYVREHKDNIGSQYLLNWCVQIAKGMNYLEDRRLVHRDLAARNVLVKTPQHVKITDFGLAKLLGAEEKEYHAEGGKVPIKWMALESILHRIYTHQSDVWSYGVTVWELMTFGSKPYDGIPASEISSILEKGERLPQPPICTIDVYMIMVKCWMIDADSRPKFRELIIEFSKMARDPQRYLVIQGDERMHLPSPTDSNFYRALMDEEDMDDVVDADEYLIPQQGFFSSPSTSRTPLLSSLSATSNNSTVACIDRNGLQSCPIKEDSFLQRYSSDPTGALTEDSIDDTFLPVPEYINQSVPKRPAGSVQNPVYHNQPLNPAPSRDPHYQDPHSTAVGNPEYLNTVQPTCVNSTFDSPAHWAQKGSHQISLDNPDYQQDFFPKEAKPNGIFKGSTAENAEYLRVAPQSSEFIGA
Experimental: 1) 10 μL of the compounds to be tested and reference compounds diluted to 10 mM were taken into an Echo LDV plate, which were diluted according to the compound profile with Echo.
1) 1×enzyme reaction buffer was prepared: 1× enzyme buffer, 5 mM MgCl2, 1 mM DTT (dithiothreitol), water.
2) A mixed solution of 10 nM enzyme (final concentration of 5 nM) and 2 μM substrate (final concentration of 1 μM) and a solution containing the substrate alone were prepared with the diluted enzyme reaction buffer.
3) 5 μL of the substrate was added into A1-H1, J24-P24 (the number of the well position), and 5 μL of the mixture of the enzyme and substrate was added into the remaining wells.
4) Centrifugation was performed at 1000 rpm at 23° C. for 30 s.
5) Incubation was performed at 23° C. for 15 min.
7) Centrifugation was performed at 1000 rpm at 23° C. for 30 s.
8) Incubation was performed at 23° C. for 60 min.
9) 10 μL of 250 nM TK Antibody-Crypate (a final concentration of 125 nM) and 1×D2 (a final concentration ½ time) prepared with Detection buffer were added.
10) Centrifugation was performed at 1000 rpm at 23° C. for 30 s.
11) Incubation was performed at 23° C. for 60 min.
12) The data was read with Envision, and the ratio was calculated to obtain the IC50 of the compound for inhibiting the enzyme activity.

Row | Compound | Tumor volume Day 0 [1] [mm^3] | Tumor volume Day 2 [1] [mm^3] | Tumor volume Day 6 [1] [mm^3] | Tumor volume Day 9 [1] [mm^3] | Tumor volume Day 13 [1] [mm^3] | Tumor volume Day 16 [1] [mm^3] | Tumor volume Day 20 [1] [mm^3] | Tumor volume Day 23 [1] [mm^3] | TGI ([1]; day 23, 25 mg/kg (days 10-21) oral) [%] | pIC50 [2] | pIC50 [3] | pIC50 [4]
1 | COc1cc(N2CCC(N3CCN(C)CC3)CC2)c(C)cc1Nc1ncc(Br)c(Nc2ccc3nccnc3c2P(C)(C)=O)n1 [Compound 34] | 185 | 198 | 92 | 75 | 40 | 45 | 76 | 111 | 100 | – | – | –
2 | CCc1cc(Nc2ncc(Br)c(Nc3ccc4nccnc4c3P(C)(C)=O)n2)c(OC)cc1N1CCC(N2CCN(C)CC2)CC1 [Compound 41] | 184 | 198 | 54 | 44 | 36 | 30 | 37 | 42 | – | 9.59 | 8.29 | 9.67
